Data reported in PubChem BioAssay (NCI).
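Tested at 5 concentrations; 48 h exposure; 96-well plates; endpoints linearly interpolated, else capped at highest concentration. TGI is the concentration that stops growth completely.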

Columns and labels:
Assay in all cases: inhibition of tumour cell growth, NCI panel, 48 h
A549 NSCLC = system: A549 NSCLC
ACHN renal = system: ACHN renal
EKVX NSCLC = system: EKVX NSCLC
HT29 colon = system: HT29 colon
SK-MEL-2 melanoma = system: SK-MEL-2 melanoma
SK-MEL-28 melanoma = system: SK-MEL-28 melanoma
SR leukemia = system: SR leukemia
TK-10 renal = system: TK-10 renal
UACC-257 melanoma = system: UACC-257 melanoma
UACC-62 melanoma = system: UACC-62 melanoma
KM12 colon = system: KM12 colon
PC-3 prostate = system: PC-3 prostate
SNB-75 CNS = system: SNB-75 CNS
T-47D breast = system: T-47D breast
BT-549 breast = system: BT-549 breast
CAKI-1 renal = system: CAKI-1 renal

Row | Compound | TGI (A549 NSCLC) [µM] | TGI (ACHN renal) [µM] | TGI (EKVX NSCLC) [µM] | TGI (HT29 colon) [µM] | TGI (SK-MEL-2 melanoma) [µM] | TGI (SK-MEL-28 melanoma) [µM] | TGI (SR leukemia) [µM] | TGI (TK-10 renal) [µM] | TGI (UACC-257 melanoma) [µM] | TGI (UACC-62 melanoma) [µM] | TGI (KM12 colon) [µM] | TGI (PC-3 prostate) [µM] | TGI (SNB-75 CNS) [µM] | TGI (T-47D breast) [µM] | TGI (BT-549 breast) [µM] | TGI (CAKI-1 renal) [µM]
1 | C[N+](C)(C)CC(=O)N/N=C/c1oc(-c2cccc([N+](=O)[O-])c2)c(-c2cccc([N+](=O)[O-])c2)c1[N+](=O)[O-] | > 100 | > 100 | > 100 | > 100 | > 100 | > 100 | > 100 | > 100 | > 100 | > 100 | – | – | – | – | – | –
2 | CC12OC3(C(O)C1O)C(C(=O)O[C@H]3CO[Si](C)(C)C(C)(C)C)C2S(=O)(=O)c1ccccc1 (stereo partly specified) | > 100 | > 100 | > 100 | > 100 | > 100 | > 100 | 87.5 | > 100 | 69 | 36 | > 100 | 96.3 | 90.4 | 79.3 | – | –
3 | CCOC(=O)C1=COC(C)(C)CC1=O | > 100 | > 100 | > 100 | > 100 | > 100 | > 100 | – | > 100 | > 100 | > 100 | > 100 | > 100 | > 100 | > 100 | > 100 | > 100
4 | CSC1=N/C(=C\c2ccccc2)C(=O)N1CN1CCOCC1 | > 100 | > 100 | > 100 | 78.5 | > 100 | > 100 | > 100 | > 100 | – | > 100 | > 100 | > 100 | > 100 | – | – | –
5 | O=C1CCCC(=O)N1n1c(Cc2ccc(Cl)cc2)n[nH]c1=O | > 100 | > 100 | > 100 | > 100 | > 100 | > 100 | – | > 100 | > 100 | > 100 | > 100 | > 100 | > 100 | > 100 | > 100 | > 100
6 | Cc1ccc(S(=O)(=O)Nn2c(C)cc3ccc(S(=O)(=O)Nc4ccccc4[N+](=O)[O-])cc3c2=O)cc1 | > 100 | > 100 | > 100 | > 100 | > 100 | > 100 | > 100 | > 100 | > 100 | > 100 | > 100 | > 100 | > 100 | – | > 100 | > 100
7 | Cc1no[n+]([O-])c1/C=N/NS(=O)(=O)c1ccccc1 | > 100 | – | > 100 | > 100 | > 100 | > 100 | > 100 | > 100 | – | > 100 | > 100 | – | – | – | – | > 100
8 | CC1(Br)S(=O)(=O)OCCOS1(=O)=O | > 100 | > 100 | > 100 | > 100 | > 100 | > 100 | > 100 | > 100 | > 100 | > 100 | – | – | > 100 | – | – | –
9 | COC(=N)c1ncn(Cc2ccccc2)c1N | > 100 | > 100 | > 100 | > 100 | > 100 | > 100 | – | > 100 | > 100 | > 100 | > 100 | > 100 | > 100 | > 100 | – | > 100
10 | N#Cc1c(N)nc2c(N=Nc3ccccc3)c(N)nn2c1Nc1ccccc1 | 46.9 | 61.9 | > 100 | 31.4 | 48.2 | 24.2 | 6.15 | 52.6 | 38.9 | – | 18.1 | – | 70.3 | – | 50.6 | 29.2
11 | COC(=O)CCN1CCN(CCO)CC1C (stereo unspecified) | > 10 | > 10 | > 10 | > 10 | > 10 | > 10 | > 10 | > 10 | > 10 | > 10 | > 10 | > 10 | > 10 | > 10 | – | > 10
12 | COc1ccc(C(=O)/C=C/c2ccc(OCC#N)cc2)cc1OC | > 100 | 76.1 | 36 | 74.7 | – | 29.5 | 61.2 | 70 | – | 36.7 | 18.5 | – | 22.9 | 28.8 | 30 | 37.5
13 | NC(CCC(=O)NC(CSC(=O)N(O)c1ccc(Cl)cc1)C(=O)NCC(=O)O)C(=O)O (stereo unspecified) | > 0.5 | > 0.5 | > 0.5 | > 0.5 | > 0.5 | > 0.5 | > 0.5 | – | > 0.5 | > 0.5 | > 0.5 | > 0.5 | > 0.5 | – | > 0.5 | > 0.5
14 | Cc1ccccc1C(=O)NC(O)(C(F)(F)F)C(F)(F)F | > 100 | > 100 | > 100 | > 100 | > 100 | > 100 | – | > 100 | > 100 | – | > 100 | > 100 | 3.17 | > 100 | – | > 100
15 | O=C1NC(=O)/C(=C/c2ccc(S(=O)(=O)N/N=C/c3ccccc3)cc2)N1 | > 100 | > 100 | > 100 | > 100 | > 100 | > 100 | – | > 100 | > 100 | > 100 | > 100 | > 100 | > 100 | > 100 | > 100 | > 100
16 | O=C(Nc1ccc(Cl)cc1Cl)c1cc2nc3ccccc3c(=O)n2c2ccccc12 | > 10 | – | > 10 | > 10 | > 10 | > 10 | – | > 10 | > 10 | > 10 | > 10 | > 10 | – | > 10 | > 10 | > 10
17 | COC(=O)NN/C=C(\C=Nc1ccccc1)[N+](=O)[O-] | > 100 | > 100 | > 100 | > 100 | – | > 100 | > 100 | > 100 | > 100 | > 100 | – | – | – | – | – | –
